Assay results taken from article PMC11729428, “New Potent Inhibitor of Transforming Growth Factor-Beta (TGFβ) Signaling that is Efficacious against Microsatellite Stable Colorectal Cancer Metastasis in Combination with Immune Checkpoint Therapy in Mice” (ACS Pharmacology & Translational Science, 2024).
In brackets after ≈: the same amount, converted by molar mass. Read-outs that look alike come from different tables or passages of the source.

Assays:
p38α = biological target: T1, p38α (Homo sapiens, UniProt Q16539); assay: Radiometric in vitro kinase activity assay (Kinase Profiler); assay type: biochemical; details: full-length recombinant protein; read-out: kinase inhibition IC50, p38α
T1 construct: p38alpha was used as a full -length recombinant protein; purchased Eurofins Pharma Discovery Services / Eurofins Cerep (Kinase Profiler service)
T1 sequence (Q16539 whole entry): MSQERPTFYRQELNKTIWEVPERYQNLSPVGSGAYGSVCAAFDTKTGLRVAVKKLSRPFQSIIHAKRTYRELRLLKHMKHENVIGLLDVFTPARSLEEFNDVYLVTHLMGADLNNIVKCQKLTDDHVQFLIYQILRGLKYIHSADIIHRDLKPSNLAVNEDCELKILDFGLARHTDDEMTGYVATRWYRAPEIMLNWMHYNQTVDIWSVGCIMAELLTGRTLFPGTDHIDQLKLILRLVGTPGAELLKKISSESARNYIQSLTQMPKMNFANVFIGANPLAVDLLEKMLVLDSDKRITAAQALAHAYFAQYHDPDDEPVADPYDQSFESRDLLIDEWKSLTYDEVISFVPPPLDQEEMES
Method: 5. Methods for In vitro characterizations of HYL001
Kinase affinity and selectivity […]
The activity, measured as IC50, of inhibitors was determined by radiometric γ-33P-ATP-mediated in vitro phosphorylation assays, using the Kinase Profiler service from Eurofins Pharma Discovery Services (Wolverhampton, UK) and Eurofins Cerep (Celle L’Evescault, France). Compounds, prepared in 100% DMSO, were tested using a 9-point curve with half -log serial dilutions (1–10,000 nM). […]

Solubility = assay type: physicochemical
Method: The solubilities in this solution are 0.7 mg/mL (1b) and 0.23 mg/mL (1a). In most in vivo experiments, a homogeneous suspension in the following vehicle was used: sodium carboxymethylcellulose (1%), sodium dodecyl sulfate (0.4%), polyvinylpyrrolidone (0.085%), and antifoam-A (0.05%). The solubilities in this vehicle are approximately 0.15 mg/mL (1b) and 0.09 mg/mL (1a). […] Therefore, as a proof-of-concept, we leveraged the hydroxyl handle to design HYL002. We added a carbonyl-4-piperidinopiperidine group, in analogy to the ester that solubilizes SN-38 into irinotecan, and that can be cleaved via hydrolysis inside cells[19] (Figure S1). HYL001 reacted with commercially available 4-piperidinopiperidine-1-carbonyl chloride in chloroform using triethylamine and catalytic amounts of DMAP (Scheme S1). We then transformed the resulting compound HYL002 into the corresponding HCl salt to aid the in vivo drug formulation. The free base was dissolved in dioxane under N2, where it was treated dropwise with 10 equiv of 4 M HCl in dioxane at room temperature with vigorous stirring. The reaction mixture was then taken to dryness in vacuo, giving the HCl salt of HYL002.

[1] = system: mouse tumor organoids (MTOs), CRC liver metastases; assay: Prevention of liver metastasis formation after MTO injection (monotherapy); assay type: in vivo, mice; details: 0.1× dose: 71 mg/kg BID HYL001, 80 mg/kg BID galunisertib
Method: We first assayed the capacity of HYL001 to inhibit liver metastasis formation as a monotherapy. In this model, we inoculated MTOs derived from liver metastases into the portal vein (by intrasplenic or direct intravenous injection) to model their becoming trapped in hepatic sinusoids and, depending on their metastatic capacity, the initiation of liver nodules. […] Remarkably, 0.1 × mol equiv (71 mg/kg BID) of HYL001 was sufficient to prevent metastasis formation in 10 out of 11 animals.
Figure 5 HYL001 prevents metastasis formation in vivo. (A) Experimental scheme, including injection of MTOs. Experimental end point was at day 28, 2 weeks after treatment stop. […] (B) Liver metastases (Mets) were counted at end points; each point represents one mouse. Nonparametric Mann–Whitney U test, two-tailed. ns: P > 0.05; *P < 0.05; **P < 0.01; ***P < 0.001; (C) representative images of H & E whole slides containing liver sections from mice treated with TGFβ inhibitors; dashed line circles delimit metastases. […] 0.3× and 0.1×: dilutions thereof. Bars, 10 mm.
For all tumor cell injections, C57BL/6J (or athymic BALB/C nu/nu) mice were purchased from Janvier at 6 weeks of age and injected at 7–8 weeks. Sex was matched with the origin of the tumor organoids, i.e., males for this study. […] Visible liver metastases were counted, and data were analyzed using GraphPad Prism software (v.7.03). […]

[2] = oral, cited from earlier work
ALK3 (BMPR1A) = biological target: T2, ALK3 (BMPR1A) (Homo sapiens, UniProt P36894); set-up: method as in earlier work; details: reported data ref 15; read-out: Binding constant (Kd) ALK3 (BMPR1A); cited from earlier work
T2 construct: purchased Eurofins/DiscoveryX (KINOMEscan service)
T2 sequence (P36894 24-532): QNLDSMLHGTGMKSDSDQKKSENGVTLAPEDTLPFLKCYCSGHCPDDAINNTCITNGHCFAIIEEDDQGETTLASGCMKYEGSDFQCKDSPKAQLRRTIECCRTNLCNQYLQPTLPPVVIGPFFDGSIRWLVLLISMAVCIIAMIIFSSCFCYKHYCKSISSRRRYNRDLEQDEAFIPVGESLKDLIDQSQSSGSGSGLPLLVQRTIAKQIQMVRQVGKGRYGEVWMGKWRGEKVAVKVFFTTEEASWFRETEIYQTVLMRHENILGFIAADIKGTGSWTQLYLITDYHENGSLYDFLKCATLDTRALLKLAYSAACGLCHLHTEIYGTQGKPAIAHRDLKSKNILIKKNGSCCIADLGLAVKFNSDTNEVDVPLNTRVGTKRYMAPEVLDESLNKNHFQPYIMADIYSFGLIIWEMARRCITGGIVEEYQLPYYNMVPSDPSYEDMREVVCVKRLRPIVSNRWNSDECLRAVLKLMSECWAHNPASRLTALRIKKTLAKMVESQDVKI

[3] = Exploratory toxicology study in Balb/C mice; assay type: in vivo
Method: In comparison to that in rats, toxicity of TGFβ receptor-1 inhibitors in mice was less severe (Figure 4). […] Histopathology examination in bones found relatively mild phenotypes (Figure 4A).
performed using GraphPad Prism statistical software version 5.02 for Windows, GraphPad Software, San Diego
The study design in mice was similar as in rats, except 5 mice of each sex were used (n=10 in total), and that
there was not a recovery group. All analyses were performed at day 29 after termination of treatment.

[4] = system: TGFβ targets (phospho-SMAD2, CTHRC1, Caldesmon); assay: Protein expression of TGFβ targets in established liver metastases; assay type: in vivo; details: mice with established liver metastases
Description: (Figure S4). […] Moreover, these mice were resistant to immune checkpoint therapy like human patients with pMMR/MSS CRC are in the clinic.[5],[33]

[5] = rat, in vivo
Method: (§1) Sprague-Dawley rats were procured from Hylasco Bio-Technology Pvt. Ltd., Hyderabad. After completion of
(§2) the acclimatization period twelve healthy rats were randomly allocated to the control and treatment g roups.
(§3) mg/kg BID) treated animals, having three rats/sex/group. Rats from control group received vehicle, consisting
(§4) quantity sufficient to 1% w/v Carboxy Methyl Cellulose Sodium Salt. Rats from treatment groups were
(§5) administered with suspensions of the indicated drugs in vehicle, orally twice a day fo r an intended period of 28
(§6) consecutive days. The dosing volume was kept constant at 10 mL/kg for each rat.
(§7) clinical sign that worsened during the treatment, were necropsied in the shortest time for ethical reasons. The
(§8) rest of the rats were necropsied at the end of the treatment.
(§9) asphyxiation on day 29, except for one group of HYL001 treated rats with 71 mg/kg BID, that were allowed to
(§10) recover from treatment for further 28 days.
(§11) The rats were subjected to detailed gross pathological examination which included careful examination of the
(§12) external surface of the body, all orifices and the cranial, thoracic and abdominal cavities and their contents. After
(§13) gross pathological examination the vital organs were trimmed of any adherent tissue and were weighed wet.
(§14) Paired organs were weighed together. Organ weights relative to terminal body weights were calculated for each
(§15) Parameters evaluated during the study included in-life observations such as clinical signs observation, body
(§16) weights, percent body weight gains, and feed consumption. Parameters like hematology, clinical chemistry,
(§17) gross pathology, and organ weights were evaluated on the day of termination. Several organs/tissues were further
(§18) processed and evaluated for histopathology, where special attention was given to bones, gastrointestinal system
(§19) (stomach, duodenum, jejunum, ileum, caecum, colon and rectum), heart, and vascular lesions in the aorta and
(§20) coronary arteries. For histopathology, 3-5 μM thick tissue sections were cut and stained with hematoxylin-eosin
(§21) stain. The heart was trimmed by longitudinally bisecting along a plane perpendicular to the plane of the
(§22) pulmonary artery to expose the right atrioventricular, left atrioventricular, and aortic valves. Both halves of the
(§23) heart were embedded as hemisection in paraffin with the cut surface down. Blocks were sectioned to obtain at
least three heart valves.

[6] = Exploratory toxicology study in SD rats; details: for Degeneration of heart valves (histopathology grade): HYL001: after 4 weeks of repeated dosing, vactosertib: after 7–8 days of treatment; for Retained hypertrophied cartilage physis in sternum and femur (grade): vactosertib: all animals, HYL001: a few females
Method: as §1, §2, §3, §4, §5, §6, §7, §8, §9, §10, §11, §12, §13, §14, §15, §16, §17, §18, §19, §20, §21, §22, §23
least three heart valves.

[7] = aqueous dosing vehicle (NaCMC/SDS/PVP/antifoam-A), aqueous with cosolvent or surfactant or cyclodextrin, vehicle: sodium carboxymethylcellulose (1%), sodium dodecyl sulfate (0.4%), polyvinylpyrrolidone (0.085%), antifoam-A (0.05%), read-out: Solubility

For `Cc1cccc(-c2nn3c(c2-c2ccnc4ccc(C(N)=O)cc24)CCC3)n1` [galunisertib], the IC50 (p38α) was 920 nM, the solubility (Solubility; [7]) was ~150 µg/mL (≈ 406 µM) and the solubility (Solubility; solution of PBS/2-hydroxypropy-β-cyclodextrin (1 g/mL)) was 700 µg/mL (≈ 1890 µM). The Solubility in water (Solubility) was “poorly soluble”, the “Number of mice with detectable liver metastases (liver mets YES)” value [1] was “All treated animals developed metastases” and the AUClast ([2]; mice (♀ CD-1), 75 mg/kg ref 20) was 3110 ng·h/mL. The Cmax ([2]; mice (♀ CD-1), 75 mg/kg ref 20) was 3330 ng/mL, the T1/2 ([2]; mice (♀ CD-1), 75 mg/kg ref 20) was 84 min and the Tmax ([2]; mice (♀ CD-1), 75 mg/kg ref 20) was 30 min. The Kd (ALK3 (BMPR1A)) was 16800 nM.
`Cc1cccc(-c2nn3c(c2-c2ccnc4ccc(O)cc24)CCC3)n1` [HYL001, 4-(2-(6-Methylpyridin-2-yl)-5,6-dihydro-4H-pyrrolo[1,2-b]pyrazol-3-yl)quinolin-6-ol] showed an IC50 (p38α) of 548 nM, a solubility (Solubility; PBS/2-hydroxypropyl-β-cyclodextrin solution, aqueous with cosolvent or surfactant or cyclodextrin, solution of PBS/2-hydroxypropy-β-cyclodextrin (1 g/mL), read-out: Solubility) of 230 µg/mL (≈ 672 µM) and a solubility (Solubility; [7]) of ~90 µg/mL (≈ 263 µM). The Solubility in water (Solubility) was “poorly soluble”, the “Female mice with slight inflammatory infiltrates in liver” value ([3]; mouse, in vivo) was 2/5 and the “Mortality or signs of morbidity” value ([3]; mouse, in vivo) was “No mortality or signs of morbidity”. For the same compound, the “Number of mice without detectable liver metastases (liver mets NO)” value [1] was 10 out of 11, the “Protein expression of TGFβ targets (phospho-SMAD2, CTHRC1, Caldesmon)” value [4] was “marked decrease” and the “Animals showing a curved sternum at death or end point” value [5] was “Some female rats”. For the same compound, the “Degeneration of heart valves (histopathology grade)” value [6] was “minimal to mild”, the Heart abnormalities ([6]; low-dose group 1 (25 mg/kg BID)) was “no heart abnormalities were observed” and the no-observed-adverse-effect level ([6]; male rats) was 25 mg/kg BID. For the same compound, the “Effects on body weight (gain), feed consumption, hematology, and clinical chemistry analytes” value ([6]; rats of both sexes, oral, either dose level) was “no HYL001-related effects” and the “Retained hypertrophied cartilage physis in sternum and femur (grade)” value [6] was “mild”.
With `Cc1cccc(-c2[nH]c(CNc3ccccc3F)nc2-c2ccc3ncnn3c2)n1` [vactosertib, N -((4-([1,2,4]Triazolo[1,5-a]Pyridin-6-Yl)-5-(6-Methylpyridin-2-Yl)-1 H -Imidazole-2-Yl)Methyl)-2-Fluoroaniline] the “Mortality or signs of morbidity” value ([3]; equimolar dose, mice) was “No mortality or signs of morbidity”, the “Female mice with slight inflammatory infiltrates in liver” value ([3]; female, Balb/C, mouse, in vivo, 29 day) was 4/5 and the Neutrophil count ([3]; mouse, in vivo) was “slight increase”. For the same compound, the “Animals showing a curved sternum at death or end point” value [5] was “all”, the “Microscopic findings along the gastrointestinal tract” value [5] was “minimal hyperplasia of the nonglandular stomach and chronic inflammation observed in one female rat” and the AUCinf ([2]; mice (FVB/N), 10 mg/kg ref 21) was 752 ng·h/mL. For the same compound, the AUClast ([2]; mice (FVB/N), 10 mg/kg ref 21) was 724 ng·h/mL, the Cl/F ([2]; mice (FVB/N), 10 mg/kg ref 21) was 222 mL/min/kg and the Cmax ([2]; mice (FVB/N), 10 mg/kg ref 21) was 625 ng/mL. The T1/2 ([2]; mice (FVB/N), 10 mg/kg ref 21) was 196 min, the Tmax ([2]; mice (FVB/N), 10 mg/kg ref 21) was 30 min and the Vss/F ([2]; mice (FVB/N), 10 mg/kg ref 21) was 18 L/kg. For the same compound, the “Degeneration of heart valves (histopathology grade)” value [6] was “moderate”, the “Animals with chronic inflammation of the myocardium” value ([6]; at early end points (day 7–8)) was “all 6” and the Mortality ([6]; group 4, equimolar dose (82 mg/kg BID)) was “all female rats were found dead on day 7 and all male rats had to be sacrificed on day 8”. The “Retained hypertrophied cartilage physis in sternum and femur (grade)” value [6] was “mild–moderate”.
